Source: ChEMBL document CHEMBL1201862, “PubChem BioAssay data set” (2004)
Counter-ions that a name gives are not always drawn. Active and inactive are the calls of the source.

How the values were obtained:
[1] = molecular target: T1, Streptokinase A (Streptococcus pyogenes serotype M1, UniProt P10520); test: Absorbance Microorganism-Based Dose Response Follow up to Identify Inhibitors of Streptokinase Expression. [Related pubchem assays: 1677 (Project Summary), 1915, 1914, 1902 (Retest at Dose), 1900 (Counter Screen), 1662 (Primary HTS)]; assay type: functional, Streptococcus pyogenes M1 GAS
T1 sequence (P10520 whole entry): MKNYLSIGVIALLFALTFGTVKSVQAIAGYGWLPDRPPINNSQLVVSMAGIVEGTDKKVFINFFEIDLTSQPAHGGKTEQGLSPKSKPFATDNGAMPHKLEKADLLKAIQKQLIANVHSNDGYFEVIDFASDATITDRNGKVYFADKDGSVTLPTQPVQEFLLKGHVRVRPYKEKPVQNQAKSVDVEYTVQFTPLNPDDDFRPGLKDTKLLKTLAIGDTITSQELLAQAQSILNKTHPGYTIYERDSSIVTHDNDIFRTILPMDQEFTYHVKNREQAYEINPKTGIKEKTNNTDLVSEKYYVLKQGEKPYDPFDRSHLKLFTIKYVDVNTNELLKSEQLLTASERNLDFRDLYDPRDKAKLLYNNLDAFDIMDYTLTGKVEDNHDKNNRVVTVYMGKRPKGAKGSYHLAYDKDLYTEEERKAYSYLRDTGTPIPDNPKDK

[2] = test system: Streptococcus; test: Streptococcus pyogenes growth inhibition counter-screen, dose response, counter-screen for streptokinase expression inhibitor project, luminescence, BacTiter-Glo, strain UMAA2166 (AID 2477); assay type: functional, organism-based
[3] = molecular target: Prothrombin (Homo sapiens, UniProt P00734); test: Thrombin 1536 HTS Dose Response Confirmation. [Related pubchem assays: 1046 (Thrombin 1536 HTS; hits were confirmed in this assay)]; assay type: functional
[4] = cytotoxicity in HPDE-C7 cells, cell-based, fluorescence, HTS (AID 430); assay type: functional; settings: Homo sapiens
[5] = cytotoxicity in KRAS-transformed pancreatic duct cells, primary screen, cell-based, fluorescence, HTS (AID 431); assay type: functional; settings: Homo sapiens;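 note: cell line used: HPDE-C7K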
[6] = molecular target: T2, Caspase-6 (Homo sapiens, UniProt P55212); test: human caspase-6 inhibitors, dose response, biochemical, VEID-R110 fluorescence, cherry-pick (AID 720632)
T2 sequence (P55212 whole entry): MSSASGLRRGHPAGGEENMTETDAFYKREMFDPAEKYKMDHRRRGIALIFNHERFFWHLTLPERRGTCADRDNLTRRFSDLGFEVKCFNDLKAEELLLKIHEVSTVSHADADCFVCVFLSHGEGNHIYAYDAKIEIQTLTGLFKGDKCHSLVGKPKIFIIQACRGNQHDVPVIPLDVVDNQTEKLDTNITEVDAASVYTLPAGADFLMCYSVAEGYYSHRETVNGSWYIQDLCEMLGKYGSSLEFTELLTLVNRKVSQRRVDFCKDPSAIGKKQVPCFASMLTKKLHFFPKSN

[7] = NIH-3T3 fibroblast cytotoxicity, dose response, cytotoxicity control, cell-based, fluorescence, Alamar Blue, secondary assay (AID 2327); assay type: functional;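 note: NIH-3T3 mouse fibroblasts cultured with fluconazole at 8 µg/mL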
[8] = C. albicans growth with fluconazole, confirmation, fluorescence, retest (AID 2467); assay type: functional, cell-based
[9] = inhibitors of intracellular T. cruzi replication, confirmation, NIH3T3 host cells, beta-gal luminescence (AID 2044); assay type: functional, cell-based;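 note: intracellular parasites grown in NIH/3T3 mouse fibroblasts as host cells; luminescent beta-galactosidase reporter signal from transgenic T. cruzi replicating inside host cells; inhibitors lower the luminescence signal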
[10] = cytotoxicity toward NIH3T3 fibroblasts, dose response, counter-screen, cell-based, ATP luminescence, mouse fibroblasts (AID 2010); assay type: functional;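 note: cells exposed to compound for about 90 hours before reading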
[11] = molecular target: T3, Mannose-6-phosphate isomerase (Homo sapiens, UniProt P34949); test: human PMI inhibitors, high substrate, primary screen, biochemical, fluorescence intensity, high mannose 6-phosphate (AID 1220)
T3 sequence (P34949 whole entry): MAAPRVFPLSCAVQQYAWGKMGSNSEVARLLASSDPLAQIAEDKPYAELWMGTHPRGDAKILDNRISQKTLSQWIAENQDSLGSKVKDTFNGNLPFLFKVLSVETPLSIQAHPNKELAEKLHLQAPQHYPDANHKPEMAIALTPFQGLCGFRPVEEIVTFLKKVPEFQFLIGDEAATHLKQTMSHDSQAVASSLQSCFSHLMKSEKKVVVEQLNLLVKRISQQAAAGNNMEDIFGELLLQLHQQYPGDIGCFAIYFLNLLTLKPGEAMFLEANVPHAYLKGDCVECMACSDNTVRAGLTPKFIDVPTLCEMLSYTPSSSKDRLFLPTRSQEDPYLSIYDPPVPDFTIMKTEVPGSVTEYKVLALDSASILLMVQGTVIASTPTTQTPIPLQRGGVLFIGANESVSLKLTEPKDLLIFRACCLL

[12] = molecular target: Nonstructural protein 1 (Influenza A virus, UniProt Q194T2); assay type: functional, Influenza A virus (A/California/07/2009(H1N1))
Sequence of Nonstructural protein 1 (Q194T2 whole entry): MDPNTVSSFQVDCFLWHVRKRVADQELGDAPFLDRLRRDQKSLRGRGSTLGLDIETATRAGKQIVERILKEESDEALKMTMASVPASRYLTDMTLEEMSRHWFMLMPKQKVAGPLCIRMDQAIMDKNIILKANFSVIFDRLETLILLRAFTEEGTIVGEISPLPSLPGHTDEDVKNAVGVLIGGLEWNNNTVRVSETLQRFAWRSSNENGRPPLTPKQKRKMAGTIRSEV

[13] = test system: INS1; test: beta cell apoptosis inhibitors, cytokine rescue, dose response, luminescence, retest (AID 449756); assay type: functional, cell-based; settings: Rattus norvegicus;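 note: cell death triggered by IL-1 beta plus TNF-alpha plus IFN-gamma mixture; protective hits raise ATP signal compared with cytokine alone wells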
[14] = molecular target: T4, 1-phosphatidylinositol 4,5-bisphosphate phosphodiesterase gamma-1 (Homo sapiens, UniProt P19174); test: Counterscreen for inhibitors of phospholipase C isozymes (PLC-B3): Fluorescence-based biochemical high throughput dose response assay to identify inhibitors of phospholipase C isozymes (PLC-gamma1).
T4 sequence (P19174 whole entry): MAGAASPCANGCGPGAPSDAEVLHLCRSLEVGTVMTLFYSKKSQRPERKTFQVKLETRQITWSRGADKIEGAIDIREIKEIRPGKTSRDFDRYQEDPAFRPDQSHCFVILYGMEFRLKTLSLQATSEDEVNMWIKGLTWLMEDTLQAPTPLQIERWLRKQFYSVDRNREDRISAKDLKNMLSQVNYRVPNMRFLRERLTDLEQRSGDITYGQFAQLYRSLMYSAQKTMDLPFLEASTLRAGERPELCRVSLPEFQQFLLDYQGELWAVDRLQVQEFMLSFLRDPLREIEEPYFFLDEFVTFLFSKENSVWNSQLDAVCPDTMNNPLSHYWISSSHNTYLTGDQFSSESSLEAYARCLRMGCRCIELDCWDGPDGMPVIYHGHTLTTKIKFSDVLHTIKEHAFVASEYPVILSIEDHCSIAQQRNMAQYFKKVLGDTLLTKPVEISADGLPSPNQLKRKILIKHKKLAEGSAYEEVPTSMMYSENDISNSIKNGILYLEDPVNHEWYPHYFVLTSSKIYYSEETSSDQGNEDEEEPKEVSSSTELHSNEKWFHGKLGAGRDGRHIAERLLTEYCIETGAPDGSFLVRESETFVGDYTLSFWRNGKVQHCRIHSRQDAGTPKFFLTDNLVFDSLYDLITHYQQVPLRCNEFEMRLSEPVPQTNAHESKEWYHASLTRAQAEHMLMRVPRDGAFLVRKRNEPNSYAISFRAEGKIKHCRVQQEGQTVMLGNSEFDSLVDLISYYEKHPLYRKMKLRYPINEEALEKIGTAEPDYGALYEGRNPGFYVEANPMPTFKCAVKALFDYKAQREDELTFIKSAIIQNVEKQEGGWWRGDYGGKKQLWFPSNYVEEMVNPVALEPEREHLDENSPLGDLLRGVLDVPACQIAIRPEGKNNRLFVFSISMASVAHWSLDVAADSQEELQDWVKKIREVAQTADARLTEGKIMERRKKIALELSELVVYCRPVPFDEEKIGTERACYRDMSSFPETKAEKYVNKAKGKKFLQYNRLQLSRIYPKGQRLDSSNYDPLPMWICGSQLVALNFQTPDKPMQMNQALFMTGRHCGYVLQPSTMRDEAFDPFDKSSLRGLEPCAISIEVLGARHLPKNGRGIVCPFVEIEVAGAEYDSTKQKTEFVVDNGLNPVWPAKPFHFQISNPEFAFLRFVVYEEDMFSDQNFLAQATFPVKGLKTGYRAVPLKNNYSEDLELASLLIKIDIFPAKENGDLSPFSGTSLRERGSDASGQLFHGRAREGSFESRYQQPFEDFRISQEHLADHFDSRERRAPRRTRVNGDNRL

[15] = molecular target: T5, 1-phosphatidylinositol 4,5-bisphosphate phosphodiesterase beta-3 (Homo sapiens, UniProt Q01970); test: Fluorescence-based biochemical high throughput dose response assay to identify inhibitors of phospholipase C isozymes (PLC-B3).
T5 sequence (Q01970 whole entry): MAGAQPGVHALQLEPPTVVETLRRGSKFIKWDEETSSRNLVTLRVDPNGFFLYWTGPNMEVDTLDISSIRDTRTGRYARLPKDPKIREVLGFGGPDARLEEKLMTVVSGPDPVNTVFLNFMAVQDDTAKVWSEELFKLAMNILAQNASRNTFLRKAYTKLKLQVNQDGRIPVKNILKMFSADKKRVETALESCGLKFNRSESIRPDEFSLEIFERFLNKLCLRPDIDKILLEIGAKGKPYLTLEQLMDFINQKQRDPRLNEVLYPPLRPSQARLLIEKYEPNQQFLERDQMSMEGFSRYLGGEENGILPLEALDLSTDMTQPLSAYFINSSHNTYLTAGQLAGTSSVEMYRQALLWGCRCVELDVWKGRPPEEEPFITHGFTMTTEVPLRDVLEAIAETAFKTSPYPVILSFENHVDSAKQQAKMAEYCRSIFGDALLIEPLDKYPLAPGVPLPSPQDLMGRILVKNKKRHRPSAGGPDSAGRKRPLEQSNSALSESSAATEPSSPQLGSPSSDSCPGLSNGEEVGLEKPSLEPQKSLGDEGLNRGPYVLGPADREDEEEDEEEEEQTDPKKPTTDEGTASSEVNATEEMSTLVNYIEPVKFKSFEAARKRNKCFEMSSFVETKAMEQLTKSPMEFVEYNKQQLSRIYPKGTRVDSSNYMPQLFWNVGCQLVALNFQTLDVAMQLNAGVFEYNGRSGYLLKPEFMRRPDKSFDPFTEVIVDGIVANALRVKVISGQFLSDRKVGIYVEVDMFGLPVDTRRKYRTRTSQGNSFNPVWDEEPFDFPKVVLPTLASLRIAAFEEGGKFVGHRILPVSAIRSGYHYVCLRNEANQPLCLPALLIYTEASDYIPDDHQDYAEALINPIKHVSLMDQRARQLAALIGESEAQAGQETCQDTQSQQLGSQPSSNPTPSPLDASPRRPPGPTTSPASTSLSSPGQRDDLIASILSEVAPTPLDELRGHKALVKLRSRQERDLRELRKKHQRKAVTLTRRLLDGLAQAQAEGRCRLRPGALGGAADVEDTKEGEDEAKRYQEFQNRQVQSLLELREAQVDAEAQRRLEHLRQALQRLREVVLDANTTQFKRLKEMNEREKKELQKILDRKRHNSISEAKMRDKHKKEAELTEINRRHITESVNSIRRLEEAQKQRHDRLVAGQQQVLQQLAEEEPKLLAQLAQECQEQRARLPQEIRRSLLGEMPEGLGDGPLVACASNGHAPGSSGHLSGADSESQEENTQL

[16] = molecular target: Cytochrome P450 2D6 (Homo sapiens, UniProt P10635);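 note: CYP2D6 member of a cytochrome P450 panel assay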
Sequence of Cytochrome P450 2D6 (P10635 whole entry): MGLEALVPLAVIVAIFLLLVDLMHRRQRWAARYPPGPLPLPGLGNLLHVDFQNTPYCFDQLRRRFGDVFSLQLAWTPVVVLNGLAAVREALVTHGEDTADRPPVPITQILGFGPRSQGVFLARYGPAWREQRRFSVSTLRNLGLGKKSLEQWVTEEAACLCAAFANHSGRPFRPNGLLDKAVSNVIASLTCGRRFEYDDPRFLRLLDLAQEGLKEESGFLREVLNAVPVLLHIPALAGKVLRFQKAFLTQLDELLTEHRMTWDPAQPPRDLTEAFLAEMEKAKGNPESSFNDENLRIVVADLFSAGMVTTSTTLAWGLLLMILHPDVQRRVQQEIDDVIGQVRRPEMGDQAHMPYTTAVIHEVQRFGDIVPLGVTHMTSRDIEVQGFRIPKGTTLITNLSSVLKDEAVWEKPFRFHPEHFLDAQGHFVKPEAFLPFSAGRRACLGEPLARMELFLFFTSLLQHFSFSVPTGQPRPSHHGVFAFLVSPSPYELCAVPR

[17] = molecular target: Voltage-dependent T-type calcium channel subunit alpha-1H (Homo sapiens, UniProt O95180); assay type: functional;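 note: channel activity triggered by adding a high calcium stimulation buffer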
Sequence of Voltage-dependent T-type calcium channel subunit alpha-1H (O95180 whole entry): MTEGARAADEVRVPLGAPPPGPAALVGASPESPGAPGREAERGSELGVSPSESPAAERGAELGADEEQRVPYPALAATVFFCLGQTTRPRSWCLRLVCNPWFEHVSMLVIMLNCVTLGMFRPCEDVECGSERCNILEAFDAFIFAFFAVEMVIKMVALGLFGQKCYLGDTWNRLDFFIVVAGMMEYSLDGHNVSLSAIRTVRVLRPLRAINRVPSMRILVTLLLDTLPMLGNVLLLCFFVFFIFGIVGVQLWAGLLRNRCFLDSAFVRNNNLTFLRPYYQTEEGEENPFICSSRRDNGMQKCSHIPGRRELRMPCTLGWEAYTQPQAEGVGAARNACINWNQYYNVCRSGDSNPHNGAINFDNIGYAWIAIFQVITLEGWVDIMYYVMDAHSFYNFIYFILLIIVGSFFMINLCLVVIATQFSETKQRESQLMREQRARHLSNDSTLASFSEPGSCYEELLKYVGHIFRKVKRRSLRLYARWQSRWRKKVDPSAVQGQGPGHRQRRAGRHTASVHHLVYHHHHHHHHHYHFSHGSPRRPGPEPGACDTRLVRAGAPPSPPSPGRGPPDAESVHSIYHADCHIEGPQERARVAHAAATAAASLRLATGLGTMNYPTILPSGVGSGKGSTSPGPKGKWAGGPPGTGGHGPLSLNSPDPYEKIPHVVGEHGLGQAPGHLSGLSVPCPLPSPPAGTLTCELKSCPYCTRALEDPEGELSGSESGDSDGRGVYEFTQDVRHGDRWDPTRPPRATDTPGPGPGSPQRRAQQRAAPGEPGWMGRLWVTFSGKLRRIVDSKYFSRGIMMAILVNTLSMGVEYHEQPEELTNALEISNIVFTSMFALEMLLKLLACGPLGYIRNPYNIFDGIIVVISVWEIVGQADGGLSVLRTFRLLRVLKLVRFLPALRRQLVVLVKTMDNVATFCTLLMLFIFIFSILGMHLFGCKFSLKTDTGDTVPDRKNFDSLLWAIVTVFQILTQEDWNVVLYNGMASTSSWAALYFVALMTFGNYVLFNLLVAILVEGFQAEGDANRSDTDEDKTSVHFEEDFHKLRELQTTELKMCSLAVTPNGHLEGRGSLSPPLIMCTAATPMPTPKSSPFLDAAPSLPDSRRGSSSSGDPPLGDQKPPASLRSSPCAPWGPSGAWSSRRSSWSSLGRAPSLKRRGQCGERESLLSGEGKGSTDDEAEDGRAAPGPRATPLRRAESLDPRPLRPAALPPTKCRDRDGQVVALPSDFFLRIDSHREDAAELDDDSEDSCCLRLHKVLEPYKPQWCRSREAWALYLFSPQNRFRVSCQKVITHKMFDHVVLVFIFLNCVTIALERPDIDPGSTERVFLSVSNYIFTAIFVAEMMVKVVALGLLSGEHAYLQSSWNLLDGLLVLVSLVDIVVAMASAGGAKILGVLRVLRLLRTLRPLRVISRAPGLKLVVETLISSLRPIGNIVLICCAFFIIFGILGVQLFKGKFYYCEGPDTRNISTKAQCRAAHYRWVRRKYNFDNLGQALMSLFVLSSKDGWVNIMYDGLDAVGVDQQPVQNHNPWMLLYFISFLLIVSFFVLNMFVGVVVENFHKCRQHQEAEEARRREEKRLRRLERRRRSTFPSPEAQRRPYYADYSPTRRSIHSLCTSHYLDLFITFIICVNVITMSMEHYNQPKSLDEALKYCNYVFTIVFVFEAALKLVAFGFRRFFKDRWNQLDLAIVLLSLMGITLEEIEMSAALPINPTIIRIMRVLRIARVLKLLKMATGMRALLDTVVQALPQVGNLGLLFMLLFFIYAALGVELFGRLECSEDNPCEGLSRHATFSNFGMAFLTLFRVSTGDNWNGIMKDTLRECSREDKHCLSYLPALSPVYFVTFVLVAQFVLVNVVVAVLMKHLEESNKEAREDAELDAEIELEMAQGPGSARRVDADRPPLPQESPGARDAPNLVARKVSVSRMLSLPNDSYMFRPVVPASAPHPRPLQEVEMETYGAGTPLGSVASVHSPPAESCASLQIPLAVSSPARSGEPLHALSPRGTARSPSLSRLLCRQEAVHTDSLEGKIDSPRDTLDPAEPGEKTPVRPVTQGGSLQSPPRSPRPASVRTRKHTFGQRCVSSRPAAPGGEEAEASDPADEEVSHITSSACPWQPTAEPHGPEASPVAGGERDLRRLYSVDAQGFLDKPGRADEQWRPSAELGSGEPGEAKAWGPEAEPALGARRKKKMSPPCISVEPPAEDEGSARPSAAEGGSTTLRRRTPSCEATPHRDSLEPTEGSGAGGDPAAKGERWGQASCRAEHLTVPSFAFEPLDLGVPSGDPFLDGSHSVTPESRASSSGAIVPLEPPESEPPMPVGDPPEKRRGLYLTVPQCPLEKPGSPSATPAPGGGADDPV

[18] = Luminescence Cell-Based Dose Retest to Confirm Inhibitors of Cancer Stem Cells. [Related pubchem assays (depositor defined):AID2717, AID2721]; assay type: functional; settings: Homo sapiens
[19] = molecular target: Induced myeloid leukemia cell differentiation protein Mcl-1 (Homo sapiens, UniProt Q07820); assay type: functional
Sequence of Induced myeloid leukemia cell differentiation protein Mcl-1 (Q07820 whole entry): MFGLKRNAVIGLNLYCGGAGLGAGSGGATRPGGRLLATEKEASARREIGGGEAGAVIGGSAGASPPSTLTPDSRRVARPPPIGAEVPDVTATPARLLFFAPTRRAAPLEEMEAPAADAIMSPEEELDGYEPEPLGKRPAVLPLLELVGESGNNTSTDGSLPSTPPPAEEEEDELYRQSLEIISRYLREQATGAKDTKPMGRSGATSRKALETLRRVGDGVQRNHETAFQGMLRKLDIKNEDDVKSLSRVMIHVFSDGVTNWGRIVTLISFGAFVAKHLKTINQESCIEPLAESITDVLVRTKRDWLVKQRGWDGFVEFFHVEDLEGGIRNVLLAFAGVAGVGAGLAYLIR

## COc1nc(-c2ccccc2)nc2ccccc12
[1]
  EC50: 75.4 µM (active)
[2]
  EC50: > 500 µM (not active)

## CCc1nccn1C(=O)c1cnn2c(C(F)F)cc(-c3ccccc3)nc12
[3]
  IC50: 0.916 µM (active)

## Cc1ccc(-n2c(C)cc(C3N=C(N)Nc4nc5ccccc5n43)c2C)c(C)c1 (stereo not given)
[4]
  EC50: 11 µM (active)
[5]
  EC50: 12.7 µM (active)

## Cc1cc(C(=O)OCC(=O)c2cccc([N+](=O)[O-])c2)c2cccc(C)c2n1
[3]
  IC50: > 50 µM (inconclusive)

## Cc1cccc(C)c1NC(=S)N/N=C/c1c(Cl)cccc1Cl
[3]
  IC50: > 50 µM (not active)

## O=[N+]([O-])c1cccc(NS(=O)(=O)c2ccc(-c3ccc(O)nn3)s2)c1
[6]
  AC50: 40.3 µM (active)

## Cc1ccc(/C=C/C2=Cc3c(sc(NC(=O)CSc4n[nH]c(N)n4)c3C#N)C(C)(C)C2)o1
[4]
  EC50: 7.52 µM (active)
[5]
  EC50: 7.17 µM (active)

## CCOC(=O)C1CCN(Cc2ccc(O)c3ncccc23)CC1
[7]
  EC50: 22.2 µM (active)
[8]
  EC50: > 38 µM (not active)
[9]
  EC50: 3.26 µM (active)
[10]
  EC50: > 60 µM (not active)
[11]
  IC50: > 50 µM (not active)
[12]
  IC50: 5.25 µM (active)
[13]
  AC50: 3.76 µM (active)

## O=C(Cc1cccs1)N1CCC(c2nc3c(nnn3Cc3ccccc3Cl)c(=O)[nH]2)CC1
[14]
  IC50: > 122 µM (inactive)
[15]
  IC50: > 122 µM (inactive)
[16]
  AC50: 14.1 µM (inconclusive)

## Fc1ccc(C(c2ccc(F)cc2)N2CCN(C/C=C/c3ccccc3)CC2)cc1 [FLUNARIZINE DIHYDROCHLORIDE]
[4]
  EC50: 5.99 µM (active)
[5]
  EC50: 5.85 µM (active)
[17]
  EC50: 5.62 µM (active)
[18]
  AC50: 4.94 µM (active)

## COc1ccc(N2CCC(CNS(=O)(=O)c3cccc(C(F)(F)F)c3)C2)cc1 (stereo not given)
[19]
  IC50: > 54 µM (active)
[11]
  IC50: > 50 µM (not active)

## CCCOc1ccc(-c2nc(Oc3ccc(OC)cc3)c3ccccc3n2)cc1
[1]
  EC50: 179 µM (active)
[2]
  EC50: > 500 µM (not active)

## COC(=O)COc1nc(C)c2c(c1C#N)CC(C)(C)OC2
[14]
  IC50: > 123 µM (inactive)
[15]
  IC50: > 123 µM (inactive)
